The source of these data is patent US7655624B2, “Peptide and peptide mimetic conjugates with integrin-inhibitor properties” (Biomet Deutschland GmbH, priority 2000, dated 2010).

The assay concerns mouse MC3T3 H1 osteoblast cultures. The experiment in a line: Cell adhesion test on RGD-peptide-coated material surfaces. The assay is classed as cell-based. The note with it: adhered cells/inoculated cells x 100; 50 000 cells/cm^2 inoculated on peptide-coated material surface; serum-free medium, 37° C./95% atmospheric humidity, one hour. Here is the method: The shaped articles are transferred into 48 wells (Costar, “non-tissue culture treated” Art. No. 3574). To attach the bioactive, cell adhesion-mediating molecules B (where B can be a cyclopeptide, peptide mimetic or linear peptide according to claim 2) to the prepared shaped articles, molecule B-containing stock solutions (“B solutions”) are prepared in a final concentration of 1 mM in one of the aqueous buffers Tris-HCl (10 mM, pH 8.7), Tris-HClO4 (10 mM, pH 8.7) or PBS, pH 7.4. Concentration series with the “B solutions” final concentrations of in each case 1 nm, 10 nm, 100 nm, 1 μm, 10 μm and 100 μm are then prepared by dilution with PBS, pH 7.4. The shaped articles are each covered with 250 μl of the respective B solution and then incubated at room temperature for 18-24 hours. To remove unbound B molecules, the samples are washed three times with PBS, pH 7.4, and stored in PBS, pH 7.4, at 4° C. overnight. […]
The adhesion of mouse MC3T3 H1 osteoblast cultures in vitro to RGD-peptide-coated material surfaces was investigated. In this test, 50 000 cells/cm^2 were inoculated and, after incubation in serum-free medium at 37° C./95% atmospheric humidity for one hour, the proportion of adhered cells was determined. […]

In turn, “Cyclo-(Arg-Gly-Asp-DPhe-Lys (N^εH[CO—(CH2)5—NH]2-Lys-[Lys-(CO—CH2—CH2—PO3H2)2]2)) [Example 4]” displayed a cell adhesion rate of 75%.
The substance “Cyclo-(Arg-Gly-Asp-DPhe-Lys (N^εH—[CO—(CH2)5—NH]3-Lys-[Lys-(CO—CH2—CH2—PO3H2)2]2) [Example 5]” gave a cell adhesion rate of 62%.
